# Reference: publication PMC11131246, “Molecular determinants for brain targeting by peptides: a meta-analysis approach with experimental validation” (Fluids and Barriers of the CNS, 2024)
# Where two headings read alike, the source gives them in different places. Residues, ends and D or L forms follow the SMILES beside them.
# How the values were obtained:
# [1] = Analytical RP-HPLC retention time (used as indication of hydrophobicity); format: physicochemical; conditions: analytical reverse phase HPLC, UV chromatogram; free and CF-labelled peptides
# [2] = Cytotoxicity, CellTiter-Blue cell viability assay; format: cell-based; conditions: human; CellTiter-Blue, peptides 0.05–100.0 µM, 24 h; triplicates, three independent cultures; read-out: Cytotoxicity IC50 Hs68
# Method: (§1) Peptide cytotoxicity was determined using the CellTiter-Blue® cell viability assay, following a described protocol. Briefly, all cell lines were carefully harvested with trypsin–EDTA and seeded 10.000–20.000 cells/100 μL into 96-well clear flat-bottomed polystyrene plates (Corning, USA) for 24 h. After medium removal, cells were washed twice with 1X PBS, and 100 µL of previously diluted peptides (range from 0.05–100.0 µM) in the respective medium were added to cells. Then, after 24 h, cells were washed twice with 1X PBS and 20 µL of CellTiter-Blue® Reagent (diluted in 100 µL of medium) was added to each well and incubated for 3 h in culturing conditions. The fluorescence intensity was measured using Varioskan™ LUX multimode microplate reader.
# (§2) IC50 values were determined using GraphPad Prism 7.0 software using a log(inhibitor) versus normalized response. Experiments were performed in triplicates on different days using three independently grown cell cultures.
# HBEC-5i cells = experiment: Translocation across in vitro BBB model (HBEC-5i monolayer, transwell); format: in vitro ADME, human; conditions: HBEC-5i monolayer on AF-coated PET transwell inserts (1.0 µm pores), 8 days, CF-peptide 5.0 µM in DMEM:F12 without phenol red added to apical side, 24 h, fluorescence, plate reader, mean ± SD, triplicates of three independent experiments
# Method: Throughout 8 days, medium was changed every other day. On the day of the experiment, cells were washed twice with 1X PBS (137.0 mM NaCl, 2.7 mM KCl, 10.0 mM Na2HPO4, and 1.8 mM KH2PO4), and once with DMEM:F12 without phenol red. Then, CF-peptides (5.0 μM, in DMEM:F12 without phenol red) were added to the apical side of the in vitro BBB model and incubated for 24 h. Finally, samples from the apical and basolateral side were collected and fluorescence intensity analyzed using a Varioskan^TM LUX multimode microplate reader (Thermo Fisher, Spain). […] Experiments were performed in triplicates on different days using three independently grown cell cultures. Seeking experimental support for our hypothesis, we have synthesized and tested in vitro the activity of ten peptides (Table 1), selected among the 14 BBBpS entries by their lowest S score in an OLS ranking.
# [3] = Cytotoxicity, CellTiter-Blue cell viability assay; format: cell-based; conditions: human; CellTiter-Blue, peptides 0.05–100.0 µM, 24 h; triplicates, three independent cultures; read-out: Cytotoxicity IC50 HEK-293
# Method: as §1, §2
# [4] = Cytotoxicity, CellTiter-Blue cell viability assay; format: cell-based; conditions: human; read-out: Cytotoxicity IC50 HBEC-5i
# Method: as §1, §2
# [5] = Cytotoxicity, CellTiter-Blue cell viability assay; format: cell-based; conditions: human; CellTiter-Blue, peptides 0.05–100.0 µM, 24 h; triplicates, three independent cultures; read-out: Cytotoxicity IC50 HeLa
# Method: as §1, §2
# [6] = Biodistribution of 67Ga-radiolabeled peptides; parameters: species or system mouse; conditions: in vivo, iv, 100 uCi, total radioactivity, i.v. tail vein, mean ± SD, n = 3; for tissue uptake at 1 h: female, CD1, mouse, 1 h post injection
# Method: All animal experiments were performed in compliance with national and EU legislation for good practices on laboratory animal science. The animals were housed in a temperature and humidity-controlled environment with a 12 h light/12 h dark schedule. Biodistribution of radiolabeled peptides was performed on 7 weeks old CD1 female mice.
# Animals were intravenously injected into the tail vein with 100 µL of a 25 µM saline solution of the ^67Ga-peptide with a radioactivity around 100 µCi. The mice were euthanized by cervical dislocation at 2 min and 1 h after injection. The dose administered and the radioactivity in the euthanized animals was measured using a dose calibrator (Carpintec CRC-15W, Ramsey, USA). The difference between the radioactivity in the injected and the euthanized animals was assumed to be due to excretion. Brain and tissues of interest without previous perfusion were dissected, washed, and weighed, and their radioactivity was measured using a γ counter (Hidex AMG, Hidex, Turku, Finland). The uptake in the brain and tissues of interest was calculated and expressed as a percentage of injected radioactivity dose per gram of tissue (% ID/g).
# [7] = Cytotoxicity, CellTiter-Blue cell viability assay; format: cell-based; conditions: human; CellTiter-Blue, peptides 0.05–100.0 µM, 24 h; triplicates, three independent cultures
# Method: as §1, §2
smiles,measurement,setting,value
CC[C@H](C)[C@H](NC(=O)CNC(=O)[C@H](CCCNC(=N)N)NC(=O)[C@H](Cc1ccc(O)cc1)NC(=O)[C@H](CS)NC(=O)[C@@H](NC(=O)[C@H](CCCNC(=N)N)NC(=O)[C@H](Cc1ccccc1)NC(=O)[C@H](CS)NC(=O)[C@H](Cc1c[nH]c2ccccc12)NC(=O)[C@@H](N)CCCCN)C(C)C)C(=O)N[C@@H](CS)C(=O)N[C@@H](Cc1ccc(O)cc1)C(=O)N[C@@H](CCCNC(=N)N)C(=O)N[C@@H](CCCNC(=N)N)C(=O)N[C@@H](CS)C(=O)N[C@@H](CCCNC(=N)N)C(N)=O [non-BBBpS_2] (H-KWCFRVCYRGICYRRCR-NH2),HPLC tR,[1],6.81 min
same,IC50 at 24 h,[2],26.4 ± 2.9 µM
same,Translocation (%) HBEC-5i,HBEC-5i cells,2.6 ± 1.2%
same,IC50 at 24 h,[3],14.7 ± 1.4 µM
same,IC50 at 24 h,[4],20.7 ± 1 µM
same,IC50 at 24 h,[5],39.4 ± 1.8 µM
same,tissue uptake at 1 h,"[6]; brain without perfusion, CD1 female mice, γ counter, read-out: Tissue distribution, Brain (brain uptake)",0.13 ± 0.03 %ID/g
same,tissue uptake at 1 h,"[6]; liver, CD1 mice, read-out: Tissue distribution, Liver",22.8 ± 10.1 %ID/g
same,tissue uptake at 2 min,"[6]; mouse, brain without perfusion, 2 min post injection, CD1 female mice, 100 µL of 25 µM 67Ga-peptide, γ counter, read-out: Tissue distribution, Brain (brain uptake)",0.27 ± 0.04 %ID/g
same,IC50 at 24 h,[7],26.9 ± 3 µM
